Reference: patent publication US7671035B2, “Epidermal growth factor receptor antisense oligonucleotides” (Idera Pharmaceuticals, Inc., priority 2001, dated 2010)
pIC50: −log10 of the molar value. In the oligonucleotide strings, read from the 5' end, every base follows the letter of its sugar. An asterisk marks phosphorothioate; unmarked linkages are phosphodiester. Other units and linkages are bracketed, terminal groups are in braces. A string of capitals states the bases alone. d = 2'-deoxy (DNA)

Experiments:
GEO cells = assay: Soft agar growth of GEO cells, antisense MBO in combination with cytotoxic drugs; format: cell-based, human; conditions: for growth inhibition: soft agar; for growth inhibitory effect in combination with cytotoxic drugs: GEO cells on soft agar, all doses, with each of cisplatin, doxorubicin, paclitaxel, topotecan (FIGS. 5, 6)
Protocol: FIG. 5A is a graphic representation showing the growth inhibitory effects of AS23 (0.01 μM, […], 0.1 μM) in combination with cisplatin on the growth of CEO cells in soft agar. Cells were treated with the indicated concentrations of cytotoxic drug on day 1, followed by the indicated concentrations of EGFR-AS oligonucleotide on each day from day 2 to day 4. Colonies were counted after 10 to 14 days. Data represent the average (±standard deviation) of three different experiments, each performed in triplicate.
The invention also provides a method of potentiating the growth inhibitory effect of a cytotoxin on a cancer cell. In this method, the cell is contacted with an oligonucleotide of the invention, as well as the cytotoxin. For example, the growth inhibitory effects of AS23 and AS24 on cancer cells were examined in combination with four different cytotoxins: cisplatin, doxorubicin, paclitaxel, and topotecan. […] When lower doses of these agents were used, the antiproliferative effect was clearly cooperative. […] The cooperativity quotient of this treatment, defined as the ratio between the actual growth inhibition obtained with cisplatin followed by AS23 MBO and the sum of the growth inhibition achieved by each agent, was approximately 1.8.
Cells (10^4 cells/well) were suspended in 0.5 ml of 0.3% Difco Noble agar (Difco, Detroit, Mich.) supplemented with complete culture medium. This suspension was layered over 0.5 ml of 0.8% agar-medium base layer in 24 multiwell cluster dishes (Becton Dickinson, Lincoln Park, N.J.) and treated on days 1, 2 and 3 with different concentrations of the various EGFR-AS oligonucleotides alone and/or in combination on day 1 with the indicated concentrations of cytotoxic drugs. After 10 to 14 days, cells were stained with nitro blue tetrazolium (Sigma, St. Louis, Mo.) and colonies larger than 0.05 mm were counted.

[1] = tested on: human GEO colon cancer cells; assay: Soft agar (anchorage-independent) colony growth of GEO cells; format: cell-based; conditions: read-out: IC50, inhibition of GEO cell soft agar growth
Protocol: Antisense oligonucleotides having SEQ ID NOS: 1-10 were designed and evaluated for the ability to inhibit the anchorage-independent growth of human GEO colon cancer cells. Human cancer cells useful for this study are GEO cells.
The IC50 determined by treatment with these antisense oligonucleotides varied between 0.1 and 0.7 μM. Based on the nucleotide sequence and on the growth inhibitory activity, two sequences (corresponding to AS14 (SEQ 10 NO: 14) and AS22 (SEQ ID NO: 22)) were modified in their backbone structure as hybrid DNA-RNA 20-mer oligonucleotides (AS23 (SEQ ID NO: 23)) and AS24 (SEQ ID NO: 24)) and further characterized for their biological characteristics. GEO cells were grown as colonies in soft agar and treated with different concentrations of the indicated antisense oligonucleotides. IC50 values were obtained from three different experiments, each performed in triplicate.
GEO human colon cancer, OVCAR-3 human ovarian cancer, and ZR-75-1 human breast cancer cell lines were obtained from the American Type Culture Collection, Manassas, Va. (OVCAR, ATCC No. HTB-161; ZR-75-1, ATCC No. CRL-1500). […]
Cells (10^4 cells/well) were suspended in 0.5 ml of 0.3% Difco Noble agar (Difco, Detroit, Mich.) supplemented with complete culture medium. […] After 10 to 14 days, cells were stained with nitro blue tetrazolium (Sigma, St. Louis, Mo.) and colonies larger than 0.05 mm were counted.

p27 [2] = assay: Western blot of p27 expression in GEO cells; format: cell-based, human; conditions: three days, 0.1 and 0.5 μM (FIG. 3A)
Protocol: (§1) Equal amounts (50 μg/lane) of protein extracts were resolved by a 12% SDS-PAGE and probed with an anti-human p27 MAb. Immunoreactive proteins were visualized by enhanced chemiluminescence.
(§2) The ability of EGFR antisense treatment to induce p27 was therefore examined.
(§3) 50 μg total cell lysates from GEO cells, which were treated each day for three days with the indicated concentrations of antisense oligonucleotides, were fractionated through 7.5% or 12% sodium dodecyl sulfate-polyacrylamide gels, transferred to nitrocellulose filters and incubated with an anti-human EGFR mouse MAb or with an anti-human p27 mouse MAb (both antibodies were purchased from Transduction Laboratories, Lexington, Ky.), respectively, followed by horseradish-peroxidase antiserum (Bio-Rad Laboratories, Milano, Italy). Immunoreactive proteins were visualized by enhanced chemiluminescence (Amersham International, England).

p27 [3] = assay: Western blot of p27 expression in ZR-75-1 cells; format: cell-based, human; conditions: three days, 0.1 and 0.5 μM (FIG. 3B)
Protocol: as §1, §2, §3

EGFR = assay: Western blot of EGFR expression in GEO cells; format: cell-based, human; conditions: GEO cells treated three days at 0.1 μM or 0.5 μM, compared to scramble oligonucleotide-treated cells (FIG. 1B)
Protocol: FIG. 1A is a representation of a Western blot showing EGFR expression in GEO cancer cells following treatment with EGFR antisense oligonucleotides. GEO cells were treated for three days with 0.5 μM of the indicated oligonucleotides (AS 5, 6, 7, 8, 9, 10), 0.5 μM, or with 0.5 μM scramble sequence oligonucleotides. Equal amounts (50 μg/lane) of protein extracts were resolved by a 7.5% SDS-PAGE and probed with an anti-human EGFR monoclonal antibody. Immunoreactive proteins were visualized by enhanced chemiluminescence.
FIG. 1B is a representation of a Western blot showing EGFR expression in CEO cells following treatment with EGFR antisense oligonucleotides. GEO cells were treated for three days with AS23 and AS24 oligonucleotides (0.1 or 0.5 μM), respectively; or with 0.5 μM of scramble sequence oligonucleotides. Equal amounts (50 μg/lane) of protein extracts were resolved by a 7.5% SDS-PAGE and probed with an anti-human EGFR monoclonal antibody. Immunoreactive proteins were visualized by enhanced chemiluminescence. […]

| Molecule | pIC50 [1] | EGFR protein expression (Western blot) (EGFR) | growth inhibitory effect in combination with cytotoxic drugs (GEO cells) | other results |
| --- | --- | --- | --- | --- |
| N.N.[Cl][Pt][Cl] [cisplatin, CIS-diamminedichloroplatinum, reference compound] |  |  |  | growth inhibition (GEO cells; GEO cells, 0.25 μg/ml cisplatin alone): approximately 20% |
| CTCTTCTTGACAGTCTGATG (antisense dC*dT*dC*dT*dT*dC*dT*dT*dG*dA*dC*dA*dG*dT*dC*dT*dG*dA*dT*dG) [AS10] | ~6.30 |  |  |  |
| ACACTGCCTGAGAGTTGCCC (antisense dA*dC*dA*dC*dT*dG*dC*dC*dT*dG*dA*dG*dA*dG*dT*dT*dG*dC*dC*dC) [AS1] | ~5.46 |  |  |  |
| UAUGATCTGTCACAGCUUGA (phosphorothioate linkages, 2'-O-methyl ribonucleosides, further chemistry not given here) [AS23] |  | almost complete inhibition | supra-additive growth inhibitory effect | p27 expression (Western blot) (p27 [2]): dose-dependent increase in p27 expression; p27 expression (Western blot) (p27 [3]): dose-dependent increase in p27 expression; growth inhibition (GEO cells; GEO cells, 0.05 μM AS23 MBO alone): approximately 20%; inhibition of colony formation in soft agar (GEO cells; GEO cells, combined treatment 0.25 μg/ml cisplatin followed by 0.05 μM AS23 MBO (FIG. 5A)): 70%; cooperativity quotient (GEO cells; ratio of growth inhibition with cisplatin followed by AS23 MBO to the sum of growth inhibition by each agent, GEO cells): approximately 1.8 |
| UGCTAGGTTTCCTCCCUUUC (phosphorothioate linkages, 2'-O-methyl ribonucleosides, further chemistry not given here) [AS24] |  | almost complete inhibition | supra-additive growth inhibitory effect |  |
